Reference: PubChem BioAssay AID248 (DTP/NCI, 2004)
Where “and” joins values, the source holds several entries; their conditions need not be identical. Equal entries are not always repeated. Inconclusive results and toxic doses are left out. Rule as the data show it: active = T/C of 150% or more; inactive = T/C below 125%.

System: L1210 leukemia ip in BDF1 mice, survival T/C
Test: NCI In Vivo Anticancer Drug Screen. Data for tumor model L1210 Leukemia (intraperitoneal) in B6D2F1 (BDF1) mice
Settings: endpoint: mean survival time, higher = longer survival
Outline: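 Each compound was tested against a transplantable tumor grown in mice. The endpoint was survival, with treated animals benchmarked against vehicle controls as a simple ratio.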

[1] = dose: 100.0 mg/kg/injection, schedule: Q01DX009 (ip), vehicle: saline with Tween-80
[2] = dose: 200.0 mg/kg/injection, schedule: Q01DX009 (ip), vehicle: saline with Tween-80
[3] = dose: 100.0 mg/kg/injection, schedule: Q01DX009 (ip), vehicle: saline
[4] = dose: 100.0 mg/kg/injection, schedule: Q04DX002 (ip), vehicle: saline
[5] = dose: 200.0 mg/kg/injection, schedule: Q04DX002 (ip), vehicle: saline
[6] = dose: 400.0 mg/kg/injection, schedule: Q04DX002 (ip), vehicle: saline
[7] = dose: 50.0 mg/kg/injection, schedule: Q01DX009 (ip), vehicle: saline with Tween-80
[8] = dose: 50.0 mg/kg/injection, schedule: Q04DX003 (ip), vehicle: saline with Tween-80
[9] = dose: 100.0 mg/kg/injection, schedule: Q04DX003 (ip), vehicle: saline with Tween-80
[10] = dose: 200.0 mg/kg/injection, schedule: Q04DX003 (ip), vehicle: saline with Tween-80
[11] = dose: 100.0 mg/kg/injection, schedule: Q01DX001 (ip), vehicle: carboxymethylcellulose (CMC)
[12] = dose: 200.0 mg/kg/injection, schedule: Q01DX001 (ip), vehicle: carboxymethylcellulose (CMC)
[13] = dose: 400.0 mg/kg/injection, schedule: Q01DX001 (ip), vehicle: carboxymethylcellulose (CMC)
[14] = dose: 400.0 mg/kg/injection, schedule: Q04DX003 (ip), vehicle: saline with Tween-80
[15] = dose: 100.0 mg/kg/injection, schedule: Q04DX002 (ip), vehicle: Klucel (hydroxypropylcellulose) (HPC)
[16] = dose: 100.0 mg/kg/injection, schedule: Q04DX003 (ip), vehicle: Klucel (hydroxypropylcellulose) (HPC)
[17] = dose: 200.0 mg/kg/injection, schedule: Q04DX002 (ip), vehicle: Klucel (hydroxypropylcellulose) (HPC)
[18] = dose: 200.0 mg/kg/injection, schedule: Q04DX003 (ip), vehicle: Klucel (hydroxypropylcellulose) (HPC)
[19] = dose: 400.0 mg/kg/injection, schedule: Q04DX003 (ip), vehicle: Klucel (hydroxypropylcellulose) (HPC)
[20] = dose: 100.0 mg/kg/injection, schedule: Q01DX001 (ip), vehicle: saline
[21] = dose: 200.0 mg/kg/injection, schedule: Q01DX001 (ip), vehicle: saline
[22] = dose: 50.0 mg/kg/injection, schedule: Q01DX001 (ip), vehicle: carboxymethylcellulose (CMC)

Measured: T/C

CC(=O)NCCCCC(=O)c1ccccc1
inactive: [1] 102 % of control | [2] 100 % of control

CCOC(=O)C1(O)c2ccccc2NC(=S)N1CC(Br)CBr (stereo not drawn)
inactive: [3] 100 % of control | [4] 90 % of control | dose: 200.0 mg/kg/injection, schedule: Q01DX009 (ip), vehicle: saline 93 % of control | [5] 97 % of control | dose: 400.0 mg/kg/injection, schedule: Q01DX009 (ip), vehicle: saline 102 % of control | [6] 103 % of control

O=C1C(=O)c2ccccc2C([O-])=C1[n+]1ccccc1
inactive: [7] 97 % of control | [8] 103 % of control | [1] 95 % of control | [9] 97 % of control | [2] 93 % of control | [10] 98 % of control

C=C1N2CCC(CC2)C1(O)c1ccccc1 (stereo not drawn)
inactive: dose: 3.13 mg/kg/injection, schedule: Q04DX003 (ip), vehicle: saline 92 % of control | dose: 6.25 mg/kg/injection, schedule: Q04DX003 (ip), vehicle: saline 103 % of control | dose: 12.5 mg/kg/injection, schedule: Q04DX003 (ip), vehicle: Klucel (hydroxypropylcellulose) (HPC) 103 % of control | dose: 12.5 mg/kg/injection, schedule: Q04DX003 (ip), vehicle: saline 97 % of control

Cc1cn(C2CCCO2)c(=O)nc1NO (stereo not drawn)
inactive: [11] 104 % of control | [12] 95 % of control | [13] 98 % of control

CCCCCCOC(=O)CCCc1ccc(N(CCCl)CCCl)cc1
inactive: [4] 114 % of control | [5] 111 % of control | [6] 124 % of control

O=c1cc(Cl)c2ccccc2[nH]1
inactive: [1] 95 % of control | [9] 103 % of control | [2] 91 % of control | [10] 94 % of control | dose: 400.0 mg/kg/injection, schedule: Q01DX009 (ip), vehicle: saline with Tween-80 100 % of control | [14] 103 % of control

CCC(=O)c1ccc(OCC(O)CN2CCC(O)(c3ccccc3)CC2)cc1 (stereo not drawn)
inactive: dose: 25.0 mg/kg/injection, schedule: Q01DX009 (ip), vehicle: saline with Tween-80 98 % of control | dose: 25.0 mg/kg/injection, schedule: Q04DX003 (ip), vehicle: saline with Tween-80 97 % of control | [7] 89 % of control | [8] 105 % of control | [1] 95 % of control | [9] 100 % of control

Cc1cc(=O)oc2cc(OC(=O)Nc3ccccc3)ccc12
inactive: dose: 100.0 mg/kg/injection, schedule: Q01DX001 (ip), vehicle: Klucel (hydroxypropylcellulose) (HPC) 93 % of control | dose: 100.0 mg/kg/injection, schedule: Q01DX009 (ip), vehicle: Klucel (hydroxypropylcellulose) (HPC) 94 % of control and 105 % of control | [15] 108 % of control and 118 % of control | [16] 105 % of control | dose: 200.0 mg/kg/injection, schedule: Q01DX001 (ip), vehicle: Klucel (hydroxypropylcellulose) (HPC) 104 % of control | dose: 200.0 mg/kg/injection, schedule: Q01DX009 (ip), vehicle: Klucel (hydroxypropylcellulose) (HPC) 98 % of control | [17] 112 % of control and 92 % of control | [18] 100 % of control | dose: 400.0 mg/kg/injection, schedule: Q01DX001 (ip), vehicle: Klucel (hydroxypropylcellulose) (HPC) 108 % of control | [19] 92 % of control

O=C(/C=C(/NC1CCCCC1)c1ccccc1)c1ccccc1
inactive: [16] 98 % of control | [18] 102 % of control | [19] 100 % of control

COc1ccccc1Cl
inactive: [1] 94 % of control | [9] 106 % of control | [2] 86 % of control | [10] 104 % of control | [14] 93 % of control

O=C(O)C1C2OC(C(Br)C2Br)C1C(=O)O (stereo not drawn)
inactive: [15] 106 % of control | [9] 93 % of control | [17] 98 % of control | [10] 95 % of control | dose: 400.0 mg/kg/injection, schedule: Q04DX002 (ip), vehicle: Klucel (hydroxypropylcellulose) (HPC) 95 % of control

COC1(c2ccccc2)Oc2ccccc2C(=O)C1(O)C[N+](=O)[O-] (stereo not drawn)
inactive: dose: 50.0 mg/kg/injection, schedule: Q01DX001 (ip), vehicle: saline 95 % of control | [20] 89 % of control | [21] 95 % of control | dose: 400.0 mg/kg/injection, schedule: Q01DX001 (ip), vehicle: saline 101 % of control

Cc1ccc(N(C=O)N=O)cc1
inactive: [20] 101 % of control | [21] 98 % of control

CCN(CC)CC(=O)NCC(CCN1CCCCC1)(c1cccc2ccccc12)C(C)C (stereo not drawn)
inactive: dose: 25.0 mg/kg/injection, schedule: Q01DX009 (ip), vehicle: saline 101 % of control | dose: 50.0 mg/kg/injection, schedule: Q01DX009 (ip), vehicle: saline 115 % of control | [3] 112 % of control

CCOC(=O)NC(NC(=O)OCC)c1ccc2c(c1)OCO2
inactive: [22] 105 % of control | [11] 96 % of control | [12] 91 % of control | [13] 94 % of control

O=[N+]([O-])c1ccc(C[Se]c2ncnc3c(C4OC(CO)C(O)C4O)[nH]nc23)cc1 (stereo not drawn)
inactive: dose: 12.5 mg/kg/injection, schedule: Q01DX005 (ip), vehicle: saline 98 % of control | dose: 25.0 mg/kg/injection, schedule: Q01DX005 (ip), vehicle: saline 104 % of control | dose: 50.0 mg/kg/injection, schedule: Q01DX005 (ip), vehicle: saline 93 % of control

Nc1ncnc2c1ccn2C1CCCC1
inactive: dose: 25.0 mg/kg/injection, schedule: Q01DX001 (ip), vehicle: carboxymethylcellulose (CMC) 100 % of control | [22] 111 % of control | [11] 105 % of control
